For the assay, the system named is subcutaneous human pancreatic adenocarcinoma BxPC3 tumors. As to the kind of experiment: PpIX delayed/immediate fluorescence imaging of subcutaneous tumors after ALA injection, with palpation. The following applies: nude mice with BxPC3 tumors, ALA 250 mg/kg intraperitoneal, imaged 6 hours later. Format: in vivo. The method, then:
Nude female mice were inoculated with a single subcutaneous injection of 10^6 human pancreatic adenocarcinoma BxPC3 cells, under the skin on the flank. After approximately 3 weeks of growth, animals were chosen for imaging when their tumor diameter reached approximately 8 mm in size. These nude mice were used in the imaging experiments described below.
ALA was either intraperitoneally injected (250 mg/kg) 6 hours prior to imaging, or topically applied onto a region of interest 3 hours before imaging as Ameluz (Trademark of Biofrontera AG, Leverkusen, Germany), ointment containing 10% ALA, as further described below
Images of tumor in the live mice were acquired using a highly sensitive intensified CMOS camera synchronized with a 50-mW average output power, 635 nm, modulated diode laser using 20 microsecond (μs) pulses at repetition rate of 500 hertz (Hz) providing pulsed fluorescence excitation light. […] Irradiance were measured using a power meter with a photodiode power sensor.
The intensifier of the intensified CMOS camera was directly controlled by circuitry synchronized to the laser pulses. […] Fifty laser pulse gate periods were integrated in each image frame, alternating between immediate fluorescence and delayed fluorescence for even and odd frames, respectively. […]

The record followed here is patent US20250194968A1, “ADMINISTRATION OF AMINOLEVULINIC ACID WITH DELAYED FLUORESCENT IMAGING TO MAP AND QUANTIFY TISSUE OXYGENATION LEVELS” (THE TRUSTEES OF DARTMOUTH COLLEGE, priority 2022, published 2025).

Take `NCC(=O)CCC(=O)O` [ALA, aminolevulinic acid]: the “duration of excellent tumor contrast from palpation-induced deoxygenation” value (after palpation) is given as “up to 5 min”. Further, the “contrast in a pancreatic cancer model relative to surrounding normal oxygenated tissues (delayed fluorescence and DF/IF ratio)” value (in some examples) is 5 factor.
